# Laboratory results reported in patent US20060153933A1 (priority 2002, published 2006).
# Where two headings read alike, the source gives them in different places.
# Key:
# Type in all cases: in vivo
# [1] = test system: Phytophthora infestans (PHYTIN); settings: 1DC
# [2] = test system: Plasmopara viticola (PLASVI); settings: 1DC
# [3] = test system: Plasmopara viticola (PLASVI); test: whole plant or invertebrate; settings: for pest or weed control at 5.56 ppm / pest or weed control at 1.85 ppm / pest or weed control at 0.62 ppm: Plasmopara viticola
# [4] = test system: Phytophthora infestans (PHYTIN); test: whole plant or invertebrate; settings: for pest or weed control at 1.85 ppm: read-out: % Disease Control (observed)
# [5] = PLASVI 3DP, applied alone at 1.1 ppm
# [6] = PHYTIN 3DP, applied alone at 1.1 ppm
# [7] = 48 h, read-out: % Disease Control (observed), 2DP, 0.62 ppm alone
# [8] = PLASVI 2DP, applied alone at 5.56 ppm
# [9] = PHYTIN 2DP, applied alone at 5.56 ppm
compound,measurement,setting,value
"COC(=O)C(C)N(C(=O)Cc1ccccc1)c1c(C)cccc1C (stereo not shown) [Benalaxyl, benalaxyl]",% Disease Control (Observed),[1]; 1.90 ppm alone,8.8%
same,% Disease Control (Observed),[1]; 16.70 ppm alone,12.3%
same,% Disease Control (Observed),[2]; 0.60 ppm alone,24.6%
"CC(C)OC(=O)N[C@H](C(=O)N[C@H](C)c1nc2ccc(F)cc2s1)C(C)C [Benthivalicarb, benthivalicarb]",% Disease Control (Observed),"[3]; 1DP, 0.62 ppm alone",57.9%
same,% Disease Control (Observed),"[4]; 1DP, 0.62 ppm alone",31.6%
same,% Disease Control (Observed),[1]; 0.62 ppm alone,28.1%
"CCNC(=O)NC(=O)/C(C#N)=N/OC [Cymoxanil, cymoxanil]",% Disease Control (Observed),[3]; [5],17.5%
same,% Disease Control (Observed),[4]; [6],1.8%
same,% Disease Control (Observed),[1]; 16.7 ppm alone,49.1%
same,% Disease Control (Observed),[2]; 5.56 ppm alone,10.5%
same,% Disease Control (Observed),[2]; 16.70 ppm alone,35.1%
"Cc1ccc(C(C)NC(=O)[C@@H](NC(=O)OC(C)C)C(C)C)cc1 (stereo partly shown) [Iprovalicarb, iprovalicarb]",% Disease Control (Observed),"[3]; 3DP, 1.85 ppm alone",8.8%
same,% Disease Control (Observed),"[3]; 3DP, 5.56 ppm alone",26.3%
same,% Disease Control (Observed),"[4]; 3DP, 5.56 ppm alone",1.8%
same,% Disease Control (Observed),"[4]; 3DP, 16.70 ppm alone",33.3%
same,% Disease Control (Observed),[2]; 5.56 ppm alone,40.0%
same,% Disease Control (Observed),[2]; 16.70 ppm alone,50.0%
"Cc1cccc(C)c1N(C(=O)CCl)C1CCOC1=O (stereo not shown) [Ofurace, ofurace]",pest or weed control at 0.6 ppm,"[4]; Phytophthora infestans, 72 h, read-out: % Disease Control (observed), 3DP, 0.60 ppm alone",0%
same,pest or weed control at 1.9 ppm,"[4]; Phytophthora infestans, 72 h, read-out: % Disease Control (observed), 3DP, 1.90 ppm alone",0%
same,% Disease Control (Observed),[1]; 1.90 ppm alone,12.3%
same,% Disease Control (Observed),[1]; 5.60 ppm alone,61.0%
same,% Disease Control (Observed),[2]; 0.60 ppm alone,21.1%
"CCCOC(=O)NCCCN(C)C [Propamocarb, propamocarb]",pest or weed control at 5.56 ppm,"[3]; 48 h, read-out: % Disease Control (observed), 2DP, 5.56 ppm alone",0%
same,pest or weed control at 1.85 ppm,"[4]; Phytophthora infestans, 48 h",1.8%
same,pest or weed control at 0.62 ppm,"[4]; Phytophthora infestans, 48 h, read-out: % Disease Control (observed), 2DP, 0.62 ppm alone",0%
"COC(=O)N(OC)c1ccccc1COc1ccn(-c2ccc(Cl)cc2)n1 [Pyraclostrobin, pyraclostrobin]",pest or weed control at 1.85 ppm,"[3]; 24 h, read-out: % Disease Control (observed), 1DP, Table 14, 1.85 ppm alone",0%
same,pest or weed control at 5.56 ppm,"[3]; 24 h, read-out: % Disease Control (observed), 1DP, Table 14, 5.56 ppm alone",0%
same,pest or weed control at 0.62 ppm,[3]; [7],61.4%
same,pest or weed control at 1.85 ppm,"[4]; Phytophthora infestans, 48 h",78.9%
same,pest or weed control at 5.56 ppm,"[4]; Phytophthora infestans, 48 h, read-out: % Disease Control (observed), 2DP, 5.56 ppm alone",89.5%
"CON=C(C(=O)OC)c1ccccc1CON=C(C)c1cccc(C(F)(F)F)c1 [Trifloxystrobin, trifloxystrobin]",pest or weed control at 0.62 ppm,[3]; [7],1.8%
same,pest or weed control at 1.85 ppm,"[3]; 48 h, read-out: % Disease Control (observed), 2DP, 1.85 ppm alone",21.1%
same,pest or weed control at 1.85 ppm,"[4]; Phytophthora infestans, 48 h",24.6%
"CCC(C)(NC(=O)c1cc(Cl)c(C)c(Cl)c1)C(=O)CCl (stereo not shown) [Zoxamide, zoxamide]",% Disease Control (Observed),"[3]; 4DP, 1.90 ppm alone",5.30%
same,% Disease Control (Observed),"[3]; 4DP, 5.60 ppm alone",57.90%
same,% Disease Control (Observed),"[3]; PLASVI 2DP, applied alone at 0.4 ppm",3.5%
same,% Disease Control (Observed),"[3]; PLASVI 2DP, applied alone at 1.1 ppm",21.1%
same,% Disease Control (Observed),"[3]; PLASVI 2DP, applied alone at 3.3 ppm",36.8%
same,% Disease Control (Observed),"[3]; PLASVI 3DP, applied alone at 0.4 ppm",3.5%
same,% Disease Control (Observed),[3]; [5],17.5%
same,% Disease Control (Observed),"[3]; PLASVI 6DP, applied alone at 3.3 ppm",10.5%
same,% Disease Control (Observed),"[4]; 4DP, 1.90 ppm alone",55.30%
same,% Disease Control (Observed),"[4]; 4DP, 11.20 ppm alone",19.30%
same,% Disease Control (Observed),"[4]; 4DP, 16.70 ppm alone",34.90%
same,% Disease Control (Observed),"[4]; PHYTIN 2DP, applied alone at 0.4 ppm",1.8%
same,% Disease Control (Observed),"[4]; PHYTIN 2DP, applied alone at 1.1 ppm",14%
same,% Disease Control (Observed),[4]; [6],10.5%
same,% Disease Control (Observed),"[4]; PHYTIN 6DP, applied alone at 1.1 ppm",7%
same,% Disease Control (Observed),"[4]; PHYTIN 6DP, applied alone at 3.3 ppm",40.4%
Maneb,% Disease Control (Observed),"[3]; PLASVI 3DP, applied alone at 16.70 ppm",24.6%
same,% Disease Control (Observed),"[4]; PHYTIN 3DP, applied alone at 5.56 ppm",14.0%
same,% Disease Control (Observed),[4]; in vivo,3.5%
Metiram,% Disease Control (Observed),"[3]; PLASVI 2DP, applied alone at 1.85 ppm",5.3%
same,% Disease Control (Observed),[3]; [8],8.8%
same,% Disease Control (Observed),[4]; [9],0.0%
Propineb,% Disease Control (Observed),[3]; [8],0.0%
same,% Disease Control (Observed),[4]; [9],0.0%
mancozeb,% Disease Control (Observed),"[3]; 1DP, 2.7 ppm alone",14%
same,% Disease Control (Observed),"[3]; 1DP, 8.0 ppm alone",33.3%
same,% Disease Control (Observed),"[3]; 4DP, 1.9 ppm alone",0%
same,% Disease Control (Observed),"[3]; 4DP, 16.7 ppm alone",12.3%
same,% Disease Control (Observed),"[3]; PLASVI 3DP, applied alone at 8.9 ppm",17.5%
same,% Disease Control (Observed),"[4]; 4DP, 0.60 ppm alone",5.3%
same,% Disease Control (Observed),"[4]; 4DP, 1.9 ppm alone",8.8%
same,% Disease Control (Observed),"[4]; 4DP, 5.6 ppm alone",26.3%
same,% Disease Control (Observed),"[4]; 4DP, 16.70 ppm alone",40.4%
same,% Disease Control (Observed),"[4]; PHYTIN 3DP, applied alone at 8.9 ppm",5.3%
